Experimental data reported in article PMC8164657, “Intraoperative visualization of nerves using a myelin protein-zero specific fluorescent tracer” (EJNMMI Research, 2021).
Converted amounts (≈) assume the structure as drawn. Residues, ends and D or L forms follow the SMILES beside them. *: point of attachment. X1 = CC1(C)C(/C=C/C=C/C=C2/N(CCCCS(=O)(=O)O)c3ccc(S(=O)(=O)O)cc3C2(C)C)=[N+](CCCCCC(=O)NCCN2C(=O)CC(*)C2=O)c2ccc(S(=O)(=O)[O-])cc21

Tests used:
Solubility in H2O = type: physicochemical; conditions: water; saturated solution in H2O at r.t., centrifugation, absorption of supernatant (UV/Vis)
[1] = target: T1, P0 (P0-expressing RT4 D6P2T cells) (Rattus norvegicus, UniProt P06907); experiment: Flow cytometric saturation binding (KD); conditions: saturation binding 0–2000 nM, flow cytometry APC-A channel, triplicate, repeated at least three times
T1 construct: was performed using P0-expressing RT4 D6P2T cells; host or cells: RT4 D6P2T Schwannoma cells
T1 sequence (P06907 30-248): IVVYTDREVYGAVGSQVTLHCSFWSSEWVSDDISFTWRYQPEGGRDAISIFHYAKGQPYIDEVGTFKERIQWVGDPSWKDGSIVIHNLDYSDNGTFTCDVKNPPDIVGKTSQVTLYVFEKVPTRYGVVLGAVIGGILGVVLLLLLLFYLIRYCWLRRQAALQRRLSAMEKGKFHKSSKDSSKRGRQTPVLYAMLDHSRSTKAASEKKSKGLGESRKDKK
Experimental: Analysis of the binding affinity (KD) of Cy5-P0_1–25, Cy5-P0_41–65, Cy5-P0_61–85, Cy5-P0_81–105, Cy5-P0_95–120 and Cy5-P0_101–125 for P0 was performed using P0-expressing RT4 D6P2T cells and a previously described flow cytometric method. For saturation, binding experiments were performed for each of the fluorescent peptides in a concentration range of 0–2000 nM. All measurements were taken in triplicate, and experiments were repeated at least three times per tracer. Fluorescence was measured using a FACSCanto II flow cytometry device (BD Biosciences) in the APC-A channel. The normalized geometric means were fitted with equations in the GraphPad Prism 5 software. A fluorescence-linked immunoabsorbent assay (FLISA) that was used to confirm the specificity of Cy5-P0_101–125 for P0 is described in Additional file 1: Fluorescence-linked immunoabsorbent assay.

Row | solubility thermodynamic (Solubility in H2O) [µM] | Kd [1] [nM] | Compound
1 | 12 (≈ 44.5 µg/mL) | > 1000 | CC[C@H](C)[C@H](N)C(=O)N[C@H](C(=O)N[C@H](C(=O)N[C@@H](Cc1ccc(O)cc1)C(=O)N[C@H](C(=O)N[C@@H](CC(=O)O)C(=O)N[C@@H](CCCNC(=N)N)C(=O)N[C@@H](CCC(=O)O)C(=O)N[C@H](C(=O)N[C@@H](Cc1c[nH]cn1)C(=O)NCC(=O)N[C@@H](C)C(=O)N[C@H](C(=O)NCC(=O)N[C@@H](CO)C(=O)N[C@@H](CCCNC(=N)N)C(=O)N[C@H](C(=O)N[C@H](C(=O)N[C@@H](CC(C)C)C(=O)N[C@@H](Cc1c[nH]cn1)C(=O)N[C@@H](CSC1CC(=O)N(CCNC(=O)CCCCC[N+]2=C(/C=C/C=C/C=C3/N(CCCCS(=O)(=O)O)c4ccc(S(=O)(=O)O)cc4C3(C)C)C(C)(C)c3cc(S(=O)(=O)[O-])ccc32)C1=O)C(=O)N[C@@H](CO)C(=O)N[C@@H](Cc1ccccc1)C(=O)N[C@@H](Cc1c[nH]c2ccccc12)C(=O)N[C@@H](CO)C(N)=O)[C@@H](C)O)C(C)C)C(C)C)C(C)C)[C@@H](C)O)C(C)C)C(C)C (stereo partly drawn) [Cy5-P0_1–25] (H-IVVYTDREVHGAVGSRVTLHC(X1)SFWS-NH2)
2 | 45 (≈ 169 µg/mL) | > 1000 | CC[C@H](C)[C@H](NC(=O)[C@H](C)NC(=O)[C@H](CC(=O)O)NC(=O)[C@H](CCCNC(=N)N)NC(=O)CNC(=O)CNC(=O)[C@H](CCC(=O)O)NC(=O)[C@@H]1CCCN1C(C)=O)C(=O)N[C@@H](CO)C(=O)N[C@H](C(=O)N[C@@H](Cc1ccccc1)C(=O)N[C@@H](Cc1c[nH]cn1)C(=O)N[C@@H](Cc1ccc(O)cc1)C(=O)N[C@@H](C)C(=O)N[C@@H](CCCCN)C(=O)NCC(=O)N[C@@H](CCC(N)=O)C(=O)N1CCC[C@H]1C(=O)N[C@@H](Cc1ccc(O)cc1)C(=O)N[C@H](C(=O)N[C@@H](CC(=O)O)C(=O)N[C@@H](CCC(=O)O)C(=O)N[C@H](C(=O)NCC(=O)N[C@H](C(=O)N[C@@H](CSC1CC(=O)N(CCNC(=O)CCCCC[N+]2=C(/C=C/C=C/C=C3/N(CCCCS(=O)(=O)O)c4ccc(S(=O)(=O)O)cc4C3(C)C)C(C)(C)c3cc(S(=O)(=O)[O-])ccc32)C1=O)C(N)=O)[C@@H](C)O)C(C)C)[C@@H](C)CC)[C@@H](C)CC (stereo partly drawn) [Cy5-P0_41–65] (Ac-PEGGRDAISIFHYAKGQPYIDEVGTC(X1)-NH2)
3 | 6 (≈ 23.8 µg/mL) | > 1000 | CC[C@H](C)[C@H](NC(=O)[C@H](CCCNC(=N)N)NC(=O)[C@H](CCC(=O)O)NC(=O)[C@H](CCCCN)NC(=O)[C@H](Cc1ccccc1)NC(=O)[C@@H](NC(=O)CNC(=O)[C@@H](NC(=O)[C@H](CCC(=O)O)NC(=O)[C@H](CC(=O)O)NC(C)=O)C(C)C)[C@@H](C)O)C(=O)N[C@@H](CCC(N)=O)C(=O)N[C@@H](Cc1c[nH]c2ccccc12)C(=O)N[C@H](C(=O)NCC(=O)N[C@@H](CC(=O)O)C(=O)N1CCC[C@H]1C(=O)N[C@@H](CCCNC(=N)N)C(=O)N[C@@H](Cc1c[nH]c2ccccc12)C(=O)N[C@@H](CCCCN)C(=O)N[C@@H](CC(=O)O)C(=O)NCC(=O)N[C@@H](CO)C(=O)N[C@H](C(=O)N[C@H](C(=O)N[C@H](C(=O)N[C@@H](CSC1CC(=O)N(CCNC(=O)CCCCC[N+]2=C(/C=C/C=C/C=C3/N(CCCCS(=O)(=O)O)c4ccc(S(=O)(=O)O)cc4C3(C)C)C(C)(C)c3cc(S(=O)(=O)[O-])ccc32)C1=O)C(N)=O)[C@@H](C)CC)C(C)C)[C@@H](C)CC)C(C)C (stereo partly drawn) [Cy5-P0_61–85] (Ac-DEVGTFKERIQWVGDPRWKDGSIVIC(X1)-NH2)
